# In patent publication US6737383B1, “Herbicidal oxadiazolidines” (priority 1999, dated 2004):
# Tests used:
# cocklebur = experiment: Test B pre/postemergence cocklebur; type: in vivo, Xanthium strumarium
# Outline: (§1)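 Response is a visual 0-to-10 score relative to untreated plants, where 0 means no effect and 10 means complete control, taken twelve to sixteen days after application. Treatments went onto soil at planting and onto foliage of 1- to 4-leaf plants, using a surfactant-containing non-phytotoxic solvent.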
# corn = experiment: Test B pre/postemergence corn; type: in vivo, Zea mays
# Outline: as §1
# crabgrass = experiment: Test B pre/postemergence crabgrass; type: in vivo, Digitaria sanguinalis
# Outline: as §1
# giant foxtail = experiment: Test B pre/postemergence giant foxtail; type: in vivo, Setaria faberii
# Outline: as §1
# morningglory = experiment: Test B pre/postemergence morningglory; type: in vivo, Ipomoea hederacea
# Outline: as §1
# pigweed = experiment: Test B pre/postemergence pigweed; type: in vivo, Amaranthus retroflexus
# Outline: as §1
# rape = experiment: Test B pre/postemergence rape; type: in vivo, Brassica napus
# Outline: as §1
# soybean = experiment: Test B pre/postemergence soybean; type: in vivo, Glycine max
# Outline: as §1
# sugar beet = experiment: Test B pre/postemergence sugar beet; type: in vivo, Beta vulgaris
# Outline: as §1
# velvetleaf = experiment: Test B pre/postemergence velvetleaf; type: in vivo, Abutilon theophrasti
# Outline: as §1
# wheat = experiment: Test B pre/postemergence wheat; type: in vivo, Triticum aestivum
# Outline: as §1
# wild oat = experiment: Test B pre/postemergence wild oat; type: in vivo, Avena fatua
# Outline: as §1
# purple nutsedge = experiment: Test B pre/postemergence purple nutsedge; type: in vivo, Cyperus rotundus
# Outline: as §1
# rice = experiment: Test B flood test rice; type: in vivo, Oryza sativa
# Outline: (§2)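 Plants were grown to the 2-leaf stage before treatment with test chemical, then held in a greenhouse for twelve to sixteen days. Injury was visually rated against untreated controls on a 0–10 scale, where 0 is no effect and 10 is complete control.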
# duck salad = experiment: Test B flood test duck salad; type: in vivo, Heteranthera limosa
# Outline: as §2
# bamyardgrass = experiment: Test B flood test barnyardgrass; type: in vivo, Echinochloa crus-galli
# Outline: as §2
# [1] = Postemergence, Rate 62 g/ha, scale 0 to 10, 0 is no effect, 10 is complete control
# [2] = Postemergence, Rate 125 g/ha, scale of 0 to 10 where 0 is no effect and 10 is complete control
# [3] = Postemergence, Rate 250 g/ha, scale of 0 to 10, 0 is no effect, 10 is complete control
# [4] = Postemergence, Rate 500 g/ha, scale of 0 to 10 where 0 is no effect and 10 is complete control
# [5] = Preemergence, Rate 62 g/ha, scale 0 to 10 (0 no effect, 10 complete control)
# [6] = Preemergence, Rate 125 g/ha, scale of 0 to 10 where 0 is no effect and 10 is complete control
# [7] = Preemergence, Rate 250 g/ha, scale 0 to 10 (0 no effect, 10 complete control)
# [8] = Preemergence, Rate 500 g/ha, scale of 0 to 10 where 0 is no effect and 10 is complete control
# [9] = Rate 62 g/ha, flood test species, Pre-emergence, visual evaluation after twelve to sixteen days
# [10] = Rate 125 g/ha, under heading Pre-emergence, flood test species, visual evaluation after twelve to sixteen days
# [11] = Rate 250 g/ha, Pre-emergence (flood test species), scale 0 to 10, 0 is no effect, 10 is complete control
# [12] = Rate 500 g/ha, Pre-emergence section of Table B, 0 to 10 scale (0 no effect, 10 complete control)
structure (smiles),measurement,setting,value
CCOC(Cn1c(=O)on(C(=O)N(c2ccccc2)C(C)C)c1=O)OCC [Compound 632],"Plant response rating, Cocklebur",cocklebur; [1],0
same,"Plant response rating, Cocklebur",cocklebur; [2],0
same,Cocklebur plant response rating,cocklebur; [3],0
same,"Plant response rating, Cocklebur",cocklebur; [4],0
same,Cocklebur plant response rating,cocklebur; [5],0
same,Cocklebur plant response rating,cocklebur; [6],0
same,"Plant response rating, Cocklebur",cocklebur; [7],0
same,"Plant response rating, Cocklebur",cocklebur; [8],0
same,"Plant response rating, Corn",corn; [1],0
same,"Plant response rating, Corn",corn; [2],3
same,Corn plant response rating,corn; [3],3
same,"Plant response rating, Corn",corn; [4],5
same,Corn plant response rating,corn; [5],0
same,Corn plant response rating,corn; [6],4
same,"Plant response rating, Corn",corn; [7],4
same,"Plant response rating, Corn",corn; [8],5
same,"Plant response rating, Crabgrass",crabgrass; [1],0
same,"Plant response rating, Crabgrass",crabgrass; [2],6
same,Crabgrass plant response rating,crabgrass; [3],8
same,Crabgrass plant response rating,crabgrass; [5],2
same,Crabgrass plant response rating,crabgrass; [6],7
same,"Plant response rating, Crabgrass",crabgrass; [7],8
same,"Plant response rating, Crabgrass",crabgrass; [8],9
same,"Plant response rating, Giant foxtail",giant foxtail; [1],3
same,"Plant response rating, Giant foxtail",giant foxtail; [2],7
same,Giant foxtail plant response rating,giant foxtail; [3],8
same,"Plant response rating, Giant foxtail",giant foxtail; [4],9
same,Giant foxtail plant response rating,giant foxtail; [5],8
same,Giant foxtail plant response rating,giant foxtail; [6],10
same,"Plant response rating, Giant foxtail",giant foxtail; [7],10
same,"Plant response rating, Giant foxtail",giant foxtail; [8],10
same,"Plant response rating, Morningglory",morningglory; [1],1
same,"Plant response rating, Morningglory",morningglory; [2],1
same,Morningglory plant response rating,morningglory; [3],2
same,"Plant response rating, Morningglory",morningglory; [4],10
same,Morningglory plant response rating,morningglory; [5],0
same,Morningglory plant response rating,morningglory; [6],0
same,"Plant response rating, Morningglory",morningglory; [7],4
same,"Plant response rating, Morningglory",morningglory; [8],5
same,"Plant response rating, Redroot pigweed",pigweed; [1],0
same,"Plant response rating, Redroot pigweed",pigweed; [2],0
same,Redroot pigweed plant response rating,pigweed; [3],0
same,Redroot pigweed plant response rating,pigweed; [5],0
same,Redroot pigweed plant response rating,pigweed; [6],0
same,"Plant response rating, Redroot pigweed",pigweed; [7],6
same,"Plant response rating, Redroot pigweed",pigweed; [8],10
same,"Plant response rating, Rape",rape; [1],0
same,"Plant response rating, Rape",rape; [2],0
same,Rape plant response rating,rape; [3],0
same,"Plant response rating, Rape",rape; [4],0
same,Rape plant response rating,rape; [5],0
same,Rape plant response rating,rape; [6],0
same,"Plant response rating, Rape",rape; [7],0
same,"Plant response rating, Rape",rape; [8],4
same,"Plant response rating, Soybean",soybean; [1],1
same,"Plant response rating, Soybean",soybean; [2],2
same,Soybean plant response rating,soybean; [3],4
same,Soybean plant response rating,soybean; [5],0
same,Soybean plant response rating,soybean; [6],0
same,"Plant response rating, Soybean",soybean; [7],0
same,"Plant response rating, Soybean",soybean; [8],0
same,"Plant response rating, Sugarbeets",sugar beet; [1],0
same,"Plant response rating, Sugarbeets",sugar beet; [2],0
same,Sugarbeets plant response rating,sugar beet; [3],0
same,Sugarbeets plant response rating,sugar beet; [5],0
same,Sugarbeets plant response rating,sugar beet; [6],0
same,"Plant response rating, Sugarbeets",sugar beet; [7],0
same,"Plant response rating, Sugarbeets",sugar beet; [8],0
same,"Plant response rating, Velvetleaf",velvetleaf; [1],0
same,"Plant response rating, Velvetleaf",velvetleaf; [2],0
same,Velvetleaf plant response rating,velvetleaf; [3],0
same,Velvetleaf plant response rating,velvetleaf; [5],0
same,Velvetleaf plant response rating,velvetleaf; [6],1
same,"Plant response rating, Velvetleaf",velvetleaf; [7],6
same,"Plant response rating, Velvetleaf",velvetleaf; [8],7
same,"Plant response rating, Wheat",wheat; [1],0
same,"Plant response rating, Wheat",wheat; [2],0
same,Wheat plant response rating,wheat; [3],0
same,Wheat plant response rating,wheat; [5],0
same,Wheat plant response rating,wheat; [6],0
same,"Plant response rating, Wheat",wheat; [7],0
same,"Plant response rating, Wheat",wheat; [8],0
same,"Plant response rating, Wild oats",wild oat; [1],0
same,"Plant response rating, Wild oats",wild oat; [2],0
same,Wild oats plant response rating,wild oat; [3],0
same,Wild oats plant response rating,wild oat; [5],0
same,Wild oats plant response rating,wild oat; [6],2
same,"Plant response rating, Wild oats",wild oat; [7],3
same,"Plant response rating, Wild oats",wild oat; [8],3
same,"Plant response rating, Nutsedge",purple nutsedge; [1],0
same,"Plant response rating, Nutsedge",purple nutsedge; [2],0
same,Nutsedge plant response rating,purple nutsedge; [3],0
same,Nutsedge plant response rating,purple nutsedge; [5],0
same,Nutsedge plant response rating,purple nutsedge; [6],0
same,"Plant response rating, Nutsedge",purple nutsedge; [7],0
same,"Plant response rating, Nutsedge",purple nutsedge; [8],0
same,"Plant response rating, Rice (0 to 10 scale, 0 is no effect, 10 is complete control)",rice; [9],0
same,"Rice plant response rating (0 to 10 scale, 0 is no effect, 10 is complete control)",rice; [10],0
same,Rice plant response rating,rice; [11],0
same,Rice plant response rating,rice; [12],0
same,"Plant response rating, Ducksalad (0 to 10 scale, 0 is no effect, 10 is complete control)",duck salad; [9],0
same,"Ducksalad plant response rating (0 to 10 scale, 0 is no effect, 10 is complete control)",duck salad; [10],0
same,Ducksalad plant response rating,duck salad; [11],0
same,Ducksalad plant response rating,duck salad; [12],0
same,"Plant response rating, Barnyardgrass (0 to 10 scale, 0 is no effect, 10 is complete control)",bamyardgrass; [9],0
same,"Barnyardgrass plant response rating (0 to 10 scale, 0 is no effect, 10 is complete control)",bamyardgrass; [10],0
same,Barnyardgrass plant response rating,bamyardgrass; [11],0
same,Barnyardgrass plant response rating,bamyardgrass; [12],0
